According to patent US8362204B2 (priority 2006, dated 2013):
Where “and” joins values, the source holds several entries; their conditions need not be identical. Identical values can stand only once. Positions of bridges follow the written chain, without caps; N, C: chain ends. Non-standard residues stand in square brackets, D forms with d. Residues, ends and D or L forms follow the SMILES beside them. ξ: configuration not given here. Ala(indol-2-yl) = N[C@@H](Cc1cc2ccccc2[nH]1)C(=O)O; AllylGly = C=CC[C@H](N)C(=O)O; ξP = O=C(O)C1CCCN1

Experiments:
[1] = molecular target: T1, neuronal-type nicotinic receptors (Bos taurus, UniProt Q07263+Q8SPU6); settings: cited from earlier work
T1 construct: monolayer cultures of bovine adrenal chromaffin cells; endogenous in cells; host or cells: bovine adrenal chromaffin cells (primary monolayer cultures)

[2] = molecular target: T1, neuronal-type nicotinic receptors; assay type: cell-based, Bovine

T1 sequence (Q07263 22-495): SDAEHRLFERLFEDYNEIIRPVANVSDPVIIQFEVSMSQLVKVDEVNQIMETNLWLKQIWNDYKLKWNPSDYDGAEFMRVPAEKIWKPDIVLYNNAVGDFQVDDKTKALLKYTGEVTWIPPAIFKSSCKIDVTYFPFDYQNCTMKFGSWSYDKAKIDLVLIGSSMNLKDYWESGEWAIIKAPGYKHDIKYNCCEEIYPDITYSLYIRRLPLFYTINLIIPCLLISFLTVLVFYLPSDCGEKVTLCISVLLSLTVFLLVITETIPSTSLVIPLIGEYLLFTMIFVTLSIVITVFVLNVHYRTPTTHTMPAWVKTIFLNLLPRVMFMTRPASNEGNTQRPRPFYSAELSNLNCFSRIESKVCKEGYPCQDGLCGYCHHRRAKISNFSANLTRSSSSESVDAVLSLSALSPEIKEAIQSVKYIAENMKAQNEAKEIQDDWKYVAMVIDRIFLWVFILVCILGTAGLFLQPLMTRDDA
T1 sequence (Q8SPU6 20-496): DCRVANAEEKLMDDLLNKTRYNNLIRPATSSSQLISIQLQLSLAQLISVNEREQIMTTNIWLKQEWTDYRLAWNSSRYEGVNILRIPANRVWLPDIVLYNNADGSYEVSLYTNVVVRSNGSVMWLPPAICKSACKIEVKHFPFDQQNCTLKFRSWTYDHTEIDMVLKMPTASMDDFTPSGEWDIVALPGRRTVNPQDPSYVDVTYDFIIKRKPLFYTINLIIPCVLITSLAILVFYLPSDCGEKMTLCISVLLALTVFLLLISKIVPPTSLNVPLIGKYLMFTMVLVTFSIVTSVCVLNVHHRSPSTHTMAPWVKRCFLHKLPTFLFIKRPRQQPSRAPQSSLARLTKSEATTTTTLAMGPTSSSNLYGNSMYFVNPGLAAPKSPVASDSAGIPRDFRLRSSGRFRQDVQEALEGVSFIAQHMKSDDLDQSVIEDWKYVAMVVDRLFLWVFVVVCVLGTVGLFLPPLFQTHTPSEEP

| Compound | effect on nicotine-stimulated release of adrenaline and noradrenaline [1] | Adrenaline Release, 1st-4th (individual wells) [2] | Adrenaline Release, % control [2] | Adrenaline Release, mean [2] | Noradrenaline Release, 1st-4th (individual wells) [2] | Noradrenaline Release, % control [2] | Noradrenaline Release, % inhibition [2] [%] | Noradrenaline Release, mean [2] | noradrenaline released, basal release (0.72%) subtracted [2] [%] |
| --- | --- | --- | --- | --- | --- | --- | --- | --- | --- |
| C[C@@H]1NC(=O)[C@@H]2CSSC[C@H](NC(=O)CN)C(=O)N[C@@H](CSSC[C@@H](C(N)=O)NC(=O)[C@H](CCCNC(=N)N)NC(=O)[C@H](Cc3cc4ccccc4[nH]3)NC1=O)C(=O)N[C@@H](CO)C(=O)N[C@@H](CC(=O)O)C(=O)N1CCCC1C(=O)N[C@@H](CCCNC(=N)N)C(=O)N2 (stereo partly drawn) [native-Ctx ImI] (H-GCCSD[ξP]RCA[Ala(indol-2-yl)]RC-NH2; disulfide 2-8, 3-12) | inhibit |  |  |  |  |  |  |  |  |
| C[C@@H]1NC(=O)[C@@H]2CSSC[C@H](NC(=O)CN)C(=O)N[C@@H](CC=CC[C@@H](C(N)=O)NC(=O)[C@H](CCCNC(=N)N)NC(=O)[C@H](Cc3cc4ccccc4[nH]3)NC1=O)C(=O)N[C@@H](CO)C(=O)N[C@@H](CC(=O)O)C(=O)N1CCCC1C(=O)N[C@@H](CCCNC(=N)N)C(=O)N2 (stereo partly drawn) [compound 119, [2,8]-Cystino-[3,12]-Dicarba Conotoxin ImI: NH2-Gly-Cys-c [Hag-Ser-Asp-Pro-Arg-Cys-Ala-Trp-Arg-Hag]-NH2] (H-GC[AllylGly]SD[ξP]RCA[Ala(indol-2-yl)]R[AllylGly]-NH2; disulfide 2-8; staple 3-12) |  | 3.31% and 3.67% and 4.14% and 3.98% and 2.32% and 2.95% and 2.76% and 3.02% | 83.420% and 58.888% | 3.77% and 2.76% | 4.89% and 5.75% and 5.73% (2×) and 3.22% and 4.58% and 3.99% and 4.81% | 78.400% and 55.971% | 21.600 | 5.52% and 4.15% | 3.43 |
| C[C@@H]1NC(=O)[C@@H]2CCCC[C@H](NC(=O)CN)C(=O)N[C@@H](CSSC[C@@H](C(N)=O)NC(=O)[C@H](CCCNC(=N)N)NC(=O)[C@H](Cc3cc4ccccc4[nH]3)NC1=O)C(=O)N[C@@H](CO)C(=O)N[C@@H](CC(=O)O)C(=O)N1CCCC1C(=O)N[C@@H](CCCNC(=N)N)C(=O)N2 (stereo partly drawn) [compound 118, [2,8]-Dicarba-[3,12]-Cystino Conotoxin ImI: NH2-Gly-c[Hag-Cys-Ser-Asp-Pro-Arg-Hag]-Ala-Trp-Arg-Cys)-NH2] |  | 2.94% and 4.40% and 4.46% and 4.09% and 2.55% and 3.63% and 2.62% and 3.31% | 88.260% and 65.306% | 3.97% and 3.03% | 4.52% and 6.29% and 7.00% and 7.34% and 4.19% and 5.86% and 4.32% and 5.51% | 90.859% and 69.384% |  | 6.29% and 4.97% |  |
